Activity calls are given as the source filed them. The rule behind the calls is not given here.
Legend:
HeLa = experiment: Cytotoxicity against human HeLa cells assessed as reduction in cell viability at 0.0624 to 40 uM incubated for 48 hrs by MTT assay; type: functional, cell-based
A549 = experiment: Cytotoxicity against human A549 cells assessed as reduction in cell viability at 0.0624 to 40 uM incubated for 48 hrs by MTT assay; type: functional, cell-based
SGC-7901 = experiment: Cytotoxicity against human SGC7901 cells assessed as reduction in cell viability at 0.0624 to 40 uM incubated for 48 hrs by MTT assay; type: functional, cell-based
Rhodobium porosum = experiment: Insecticidal activity against Rhodobium porosum adults placed on 5 secs compound pre-treated bean leaves after 1 day by leaf dipping protocol based method; type: functional

| Structure (SMILES) | Activity (HeLa) | Activity (A549) | Activity (SGC-7901) | LC50 (Rhodobium porosum) [µM] |
| --- | --- | --- | --- | --- |
| C/C=C1/CN2CC[C@@]34CN5c6c(cccc6[C@@]67CCN8CCC[C@@]9(CC[C@@]56[C@H]9C)[C@H]87)[C@@]35[C@@H]2CC1[C@@H](C(=O)OC)N5c1ccccc14 | inactive | inactive | inactive | – |
| C/C=C1/C[N@@+](C)([O-])[C@H]2Cc3c4n(c5ccccc35)C35[C@@H]6C[C@H]7/C(=C\C)CN6CCC3(c3ccccc3N5[C@@H]7C(=O)O)[C@H]4CC1[C@H]2C(=O)OC (some centres not stated) | inactive | inactive | inactive | – |
| C/C=C1/CN2CCc3c([nH]c4ccccc34)[C@@H]2C[C@@H]1[C@H](CO)C(=O)OC | inactive | inactive | inactive | – |
| CC[C@@]12CCCN3CCc4c(n(c5ccccc45)[C@@H](OC)C1)[C@H]32 | inactive | inactive | inactive | – |
| C=C[C@H]1CN2CCc3c([nH]c4ccc(O)cc34)[C@@H]2C[C@@H]1CCO | inactive | inactive | inactive | 168 |
| O[C@H]1CC[C@H]2CN3CCc4c([nH]c5ccccc45)[C@@H]3C[C@@H]2C1 | inactive | inactive | inactive | – |
| C/C=C1\CN2CCc3c([nH]c4ccccc34)[C@@H]2C[C@@H]1CCO | inactive | inactive | inactive | 360 |
| C/C=C1\C[N+]2(C)CCc3c([nH]c4ccc(O)cc34)[C@@H]2C[C@@H]1CCO (some centres not stated) | inactive | inactive | inactive | – |
| C/C=C1/C[N@+]2(C)CCc3c([nH]c4ccccc34)C[C@H]1CC2 | inactive | inactive | inactive | – |
| C/C=C1/CN2CC[C@@]34CN5c6c(cccc6[C@@]67CC[N+]8([O-])CCC[C@@]9(CC[C@@]56[C@H]9C)[C@@H]78)[C@@]35[C@@H]2CC1[C@@H](C(=O)OC)N5c1ccccc14 (some centres not stated) | inactive | inactive | inactive | – |
| CC[C@H]1CN2CCc3c([nH]c4ccccc34)[C@@H]2C[C@@H]1CCO | inactive | inactive | inactive | 291 |
| C=C[C@H]1CN2CCc3c([nH]c4ccc(O)c([C@H]5C[C@@H]6/C(=C\C)CN(C)[C@@H](Cc7c5[nH]c5ccccc75)[C@@]6(CO)C(=O)OC)c34)[C@@H]2C[C@@H]1CCO | inactive | inactive | inactive | – |
| C/C=C1/CN2CCc3c([nH]c4ccc(O)c([C@H]5C[C@@H]6/C(=C\C)CN(C)[C@@H](Cc7c5[nH]c5ccccc75)[C@@]6(CO)C(=O)OC)c34)[C@@H]2C[C@@H]1CCO | inactive | inactive | inactive | – |
| C/C=C1/CN(C)[C@H]2Cc3c([nH]c4ccccc34)[C@@H](c3cc4[nH]c5c(c4cc3O)CCN3C[C@H](CC)[C@@H](CCO)C[C@@H]53)C[C@H]1[C@]2(CO)C(=O)OC | inactive | inactive | inactive | – |
| O[C@@H]1CC[C@H]2CN3CCc4c([nH]c5ccccc45)[C@@H]3C[C@@H]2C1 | inactive | inactive | inactive | – |
| CC[C@]12CCCN3CC[C@]4(C(=C(C(=O)OC)C1)Nc1ccccc14)[C@@H]32 | inactive | inactive | inactive | – |
| CC[C@@H]1[C@H]2C[C@@H]3c4[nH]c5ccc(OC)cc5c4[C@@H](C(=O)[C@H]2CO)[C@@H]1N3C | inactive | inactive | inactive | – |
| C/C=C1/CN2CCc3c4n(c5ccccc35)[C@H](C(=O)OC)[C@@H]1C[C@@H]42 | inactive | inactive | inactive | – |
| C/C=C1/C[N@@+]2(C)CCc3c([nH]c4ccc(O)c([C@H]5C[C@@H]6/C(=C\C)CN(C)[C@@H](Cc7c5[nH]c5ccccc75)[C@@]6(CO)C(=O)OC)c34)[C@@H]2C[C@@H]1CCO | inactive | inactive | inactive | – |
| CC[C@@]12CCCN3CCc4c(n(c5ccccc45)[C@H](OC)C1)[C@H]32 | inactive | inactive | inactive | – |
| C/C=C1/C[N@@+]2(C)CCc3c([nH]c4ccc(O)c([C@H]5C[C@H]6[C@@]7(C(=O)OC)CO[C@H](N(C)[C@H]7Cc7c5[nH]c5ccccc75)[C@@]65O[C@H]5C)c34)[C@@H]2C[C@@H]1CCO | inactive | inactive | inactive | – |
| O=[N+]([O-])/N=C1\NCCN1Cc1ccc(Cl)nc1 | – | – | – | 49 |
